For 14 compounds, IC50 results are on record in US9376425B2, “Heterocyclic compounds as MDM2 inhibitors for the treatment of cancer” (AMGEN INC., priority 2011, dated 2016).

In this assay the target is T1, human MDM2 (GST-hMDM2 aa 1-188), interaction with biotinylated-p53 (aa 1-83) (Homo sapiens, UniProt Q00987).
T1 construct: Amino acid residues 1-188 of human MDM2 were expressed; made in house; host or cells: Escherichia coli
T1 sequence (Q00987 1-188): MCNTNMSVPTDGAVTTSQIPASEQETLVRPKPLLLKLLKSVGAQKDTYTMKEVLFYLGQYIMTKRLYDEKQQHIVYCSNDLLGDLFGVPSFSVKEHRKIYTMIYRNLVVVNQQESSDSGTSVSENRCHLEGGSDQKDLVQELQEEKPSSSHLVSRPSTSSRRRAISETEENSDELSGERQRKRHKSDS
Nature of the assay: Homogenous Time-Resolved Fluorescence Assay (HTRF1 assay), inhibition of HDM2-p53 interaction. The conditions noted are these: 2.5 nM GST-hMDM2, 5 nM biotinylated-p53, 200 mM KF. It is filed as binding. In outline:
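GST-hMDM2 preincubated 20 min at room temperature with serially diluted compound, then biotinylated p53 (aa 1-83, AviTag-TrxA-6xHis fusion) added for 60 min. SA-XLent/anti-GST cryptate detection equilibrated >4 h; final DMSO 2%. Time-resolved fluorescence read; percent inhibition relative to nutlin-3.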
In the case of `O=C(O)CC1O[C@H](c2cc(Cl)cc(Cl)c2)[C@@H](c2ccc(Cl)cc2)N(CC2CC2)C1=O` (single isomer, unassigned) [Example 93], the IC50 (in general, the concentration needed to halve the response being measured) was 300 nM.
`C[C@H](c1ccccc1)N1C(=O)[C@H](CC(=O)O)O[C@H](c2cccc(Cl)c2)[C@H]1c1ccc(Cl)cc1` [Example 25, 2-((2S,5R,6R)-6-(3-Chlorophenyl)-5-(4-chlorophenyl)-3-oxo-4-((R)-1-phenylethyl)morpholin-2-yl)acetic acid] showed an IC50 of 600 nM.
Turning to `O=C(O)C[C@@H]1O[C@H](c2cccc(Cl)c2)[C@@H](c2ccc(Cl)cc2)N(C2CCCC2)C1=O` [Example 14, 2-((2S,5R,6R)-6-(3-Chlorophenyl)-5-(4-chlorophenyl)-4-cyclopentyl-3-oxomorpholin-2-yl)acetic acid], the concentration for half-maximal inhibition (IC50) was found to be 300 nM. Compared with the last compound, the IC50 is about 2-fold lower.
Next, `CCCN1C(=O)[C@H](CC(=O)O)O[C@H](c2cccc(Cl)c2)[C@H]1c1ccc(Cl)cc1` [Example 49, 2-((2S,5R,6R)-6-(3-Chlorophenyl)-5-(4-chlorophenyl)-3-oxo-4-propylmorpholin-2-yl)acetic acid]: 600 nM; `O=C(O)/C=C1\O[C@H](c2cccc(Cl)c2)[C@@H](c2ccc(Cl)cc2)N(CC2CC2)C1=O` (single isomer, unassigned; isomer 1) [Example 51, (Z)-2-((5R,6R)-6-(3-Chlorophenyl)-5-(4-chlorophenyl)-4-(cyclopropylmethyl)-3-oxomorpholin-2-ylidene)acetic acid or (E)-2-((5R,6R)-6-(3-Chlorophenyl)-5-(4-chlorophenyl)-4-(cyclopropylmethyl)-3-oxomorpholin-2-ylidene)acetic acid (Isomer 1)]: 600 nM.
Next, `O=C(O)CC1O[C@H](c2cc(F)cc(Cl)c2)[C@@H](c2ccc(Cl)cc2)N(CC2CC2)C1=O` (single isomer, unassigned) [Example 84]: 300 nM; `O=C(O)CC1O[C@H](c2cccc(Cl)c2)[C@@H](c2ccc(Br)cc2)N(CC2CC2)C1=O` (single isomer, unassigned) [Example 67]: 17500 nM; `O=C(O)C[C@@H]1O[C@H](c2cccc(Cl)c2)[C@@H](c2ccc(Cl)cc2F)N(CC2CC2)C1=O` [Example 54, 2-((2S,5R,6R)-5-(4-Chloro-2-fluorophenyl)-6-(3-chlorophenyl)-4-(cyclopropylmethyl)-3-oxomorpholin-2-yl)acetic acid]: 600 nM.
To `CC[C@@H](C(=O)OC(C)(C)C)N1C(=O)[C@@H](CC(=O)O)O[C@H](c2cccc(Cl)c2)[C@H]1c1ccc(Cl)cc1` (single isomer, unassigned) [Example 32] belongs 100 nM; to `C=CCN1C(=O)[C@H](CC(=O)O)O[C@H](c2cccc(Cl)c2)[C@H]1c1ccc(Cl)cc1` [Example 47, 2-((2S,5R,6R)-4-Allyl-6-(3-chlorophenyl)-5-(4-chlorophenyl)-3-oxomorpholin-2-yl)acetic acid], 800 nM; to `O=C(O)/C=C1/O[C@H](c2cccc(Cl)c2)[C@@H](c2ccc(Cl)cc2)N(CC2CC2)C1=O` (single isomer, unassigned; isomer 2) [Example 52, (E)-2-((5R,6R)-6-(3-Chlorophenyl)-5-(4-chlorophenyl)-4-(cyclopropylmethyl)-3-oxomorpholin-2-ylidene)acetic acid or (Z)-2-((5R,6R)-6-(3-Chlorophenyl)-5-(4-chlorophenyl)-4-(cyclopropylmethyl)-3-oxomorpholin-2-ylidene)acetic acid (Isomer 2)], 19700 nM.
In the case of `O=C(O)CC1O[C@H](c2cc(Cl)cc(Br)c2)[C@@H](c2ccc(Cl)cc2)N(CC2CC2)C1=O` (single isomer, unassigned) [Example 104], the IC50 came to 500 nM. This IC50 is about 39-fold lower than that of the compound before.
To `C[C@@H](C1CCCCC1)N1C(=O)[C@H](CC(=O)O)O[C@H](c2cccc(Cl)c2)[C@H]1c1ccc(Cl)cc1` (single isomer, unassigned) [Example 19, 2-((2S,5R,6R)-6-(3-chlorophenyl)-5-(4-chlorophenyl)-4-((S)-1-cyclohexylethyl)-3-oxomorpholin-2-yl)acetic acid or 2-((2S,5R,6R)-6-(3-chlorophenyl)-5-(4-chlorophenyl)-4-((R)-1-cyclohexylethyl)-3-oxomorpholin-2-yl)acetic acid] belongs 600 nM; to `O=C(O)CC1O[C@H](c2cncc(Cl)c2)[C@@H](c2ccc(Cl)cc2)N(CC2CC2)C1=O` (single isomer, unassigned) [Example 87], 1800 nM.
